In paper PMC11124362, “Metabolism, Disposition, Excretion, and Potential Transporter Inhibition of 7–16, an Improving 5-HT2A Receptor Antagonist and Inverse Agonist for Parkinson’s Disease” (Molecules, 2024):

Tests used:
[1] = system: CYP2D6; set-up: method as in PMID 35279606; details: previous study; read-out: CYP2D6 inhibition IC50; cited from earlier work
[2] = system: CYP2C19; set-up: method as in PMID 35279606; details: previous study; read-out: CYP2C19 inhibition IC50; cited from earlier work
[3] = system: CYP3A4; set-up: method as in PMID 35279606; details: previous study; read-out: CYP3A4 inhibition IC50; cited from earlier work
[4] = Excretion and metabolite identification in bile duct cannulated (BDC) rats; assay type: in vivo, Sprague-Dawley rats
Procedure: In the urine and feces excretion experiment, six rats (3 females and 3 males) were administered a single oral dose of [^14C]7–16 at 3 mg/100 µCi/kg. Urine, feces and cage washing/cleaning solution samples were collected from 0 to 168 h following drug administration at the following time intervals: 0–8, 8–24 h (0–24 h for feces), 24–48, 48–72, 72–96, 96–120, 120–144, and 144–168 h. In the biliary excretion experiment, 8 rats using a bile duct cannula (BDC) (4 females and 4 males) were administered a single oral dose of [^14C]7–16 at 3 mg/100 µCi/kg. Bile, urine, feces, and cage washing solution were collected from before and 0–72 h after oral administration at the following time intervals: 0–4, 4–8 (urine 0–8), 8–24 (feces 0–24), 24–48, and 48–72 h. All samples were collected and refrigerated at −20 °C until determination of the radioactive concentrations by liquid scintillation counter (Perkin Elmer Corporation, Waltham, MA, USA). Urine, feces, and bile samples at each time period were mixed by equal percentages of either volume or weight. After the mixed samples were treated, the radio-profiles and metabolite identification in the bile, urine, and feces samples were carried out by LC-RAM and UPLC-Q Exactive HRMS, and the TRA% of each metabolite in plasma and the percentage of dose (dose%) of each compound in urine, feces, and bile samples were calculated.

[5] = Metabolite identification in human liver microsomes; assay type: in vitro ADME; details: 7–16 10 µM, liver microsomes 1 mg/mL, NADPH, 37 °C, 60 min
Procedure: In accordance with our previous methods, 7–16 (10 µM) was incubated with mouse, rat, dog, monkey, and human liver microsome proteins (1 mg/mL) in 100 mM sodium phosphate buffer (pH 7.4) containing 10 mM magnesium chloride and 2 mM NADPH at 37 °C for 60 min. All samples were prepared in duplicates. The reactions were terminated by adding three times the volume of ice-cold acetonitrile (600 µL) and stored at −20 °C until analysis. Control samples without NADPH and 0-time point samples were included. As a positive control, testosterone (10 µM), which was metabolized to produce the hydroxylation metabolite, was used as a substrate to confirm the activity of the incubation system.
After pre-treatments, the samples were analyzed by an Acquity UPLC system coupled with a diode array detector (Waters Corporation, Milford, MA, USA) and Q Exactive HRMS (Thermo Electron Corporation, Waltham, MA, USA) (UPLC–UV-Q Exactive HRMS). Samples were separated on an Agilent XDB C18 column (150 × 2.1 mm i.d. 3.5 μm, Agilent Corporation, Santa Clara, CA, USA) at 40 °C by gradient elution with water and acetonitrile containing 0.1% formic acid. The flow rate was 0.40 mL/min. The ultraviolet (UV) detection wavelength was 286 nm. Q Exactive HRMS were operated at positive ion mode (3.5 kV) using a heating electrospray ionization source. Mass calibration was required to be performed before conducting experiments so as to achieve the best mass accuracy and mass calibration should be performed every five days. The metabolites were detected by full MS/dd-MS^2 analysis from m/z 100 to m/z 1000. The resolution of the first-class scan and second-class scan was 70,000 and 17,500, respectively. Thermo Compound Discover software was used to identify expected and unknown metabolites, and we finally proposed the 7–16 metabolic pathways based on the deduced metabolites and relevant drug biotransformation knowledge.

[6] = system: CYP2D6; assay: Metabolic phenotype by rhCYP isozymes, CYP2D6; assay type: in vitro ADME, human; details: 7–16 1 µM
Procedure: Based on the result of metabolite identification, two metabolites were selected as targets for metabolic phenotyping analysis. Seven CYP isozymes (CYP1A2, CYP2B6, CYP2C8, CYP2C9, CYP2C19, CYP2D6, and CYP3A4) were investigated using the rhCYP isozymes method. In brief, 7–16 (1 µΜ) was incubated with each rhCYP isozyme ([…]) in 100 mM sodium phosphate buffer (pH 7.4) containing 3 mM magnesium chloride. After 10 min of preincubation at 37 °C, the reactions were initiated by adding NADPH (1 mM) and then incubated at 37 °C in a shaking water bath for 0, 5, 15, and 30 min. The specific substrates of each rhCYP isozyme were incubated as the above method to confirm the activity of the incubation system. The samples were prepared in triplicates. The reactions were terminated by adding three times the volume of ice-cold acetonitrile (600 µL) and stored at −20 °C until analysis. After pre-treatment, the samples were determined by the LC–MS/MS (Shimadzu Exion-Triple Quad 4500) method. The relative contribution rate of each isozyme to the metabolism of 7–16 was evaluated in HLMs using the following formula: Contributionx% = Vx × Abundancex (pmol/mg protein)/Σ(Vi × Abundancei). Vx (µL/min/pmol) is the production rate of metabolites for each rhCYP isozyme.

Q: What does the source list for `CN1CCC(N(Cc2ccc(F)cn2)C(=O)NCc2ccc(OCC(F)(F)F)cc2)CC1` [7–16, 3-(4-(2,2,2-trifluoroethoxy)benzyl)-1-((5-fluoropyridin-2-yl)methyl)-1-(1-methylpiperidin-4-yl) urea]?
A: IC50 [1]: > 62.9 µM; IC50 [2]: > 62.9 µM; IC50 [3]: > 62.9 µM; recovery of radioactivity in bile, percent of dose ([4]; BDC rats, 0–72 h): 18.4%; recovery of radioactivity in cage rinse/wash, percent of dose ([4]; BDC rats, 0–72 h): 3.42%; recovery of radioactivity in feces, percent of dose ([4]; BDC rats, 0–72 h): 20.2%; recovery of radioactivity in urine, percent of dose ([4]; BDC rats, 0–72 h): 56.3%; total recovery of radioactivity, percent of dose ([4]; BDC rats, 0–72 h, oral 3 mg/100 µCi/kg, mean of both sexes): 98.3%; recovery of radioactivity within the first 24 h, percent of dose ([4]; BDC rats, first 24 h post-administration): 82.8%; absorption rate ([4]; calculated from dose excreted in bile and urine of BDC rats, oral): at least 74.7%; Relative Abundance, UV Area% Human [5]: 95.2%; relative contribution of CYP2D6 to metabolism [6]: little or no contribution
